Data as given in US9969679B2, “Anti-proliferative compounds and uses thereof” (Dana-Farber Cancer Institute, Inc., priority 2012, dated 2018).

What was measured:
[1] = test system: T47D human breast cancer cells; assay: T47D cell growth, MTT dye absorbance; format: cell-based; details: for T47D cell growth: 72 hr
Protocol: (§1) MCF7 human breast cancer cell lines were obtained from the American Type Culture Collection (Manassas, Va.). The cells were cultured in DMEM (Mediatech Inc., Manassas, Va.) or RPMI1640 (Mediatech Inc., Manassas, Va.) supplemented with FBS (10%), penicillin, streptomycin, and glutamine (Invitrogen, Auckland, New Zealand). […] The MCF7 cells were harvested using 0.05% trypsin-EDTA (Invitrogen) and distributed into 96-well plates (10,000-20,000 cells/well) 24 hr prior to the treatment. All experiments were performed three times in quadruplicate.
T47D human breast cancer cells were obtained, cultured (in the presence of compounds III-A, III-B, III-C, or III-E), and assayed in a similar manner as in Example 6.

[2] = test system: LnCaP human prostate cancer cells; assay: LnCaP cell growth, MTT dye absorbance; format: cell-based; details: 72 hr
Protocol: [The procedure below names another cell line; the source lists this cell line under the same test.] as §1

[3] = test system: MCF7 human breast cancer cell lines; assay: MCF7 cell growth, MTT dye absorbance; format: cell-based; details: for MCF7 cell growth: 72 hr
Protocol: as §1

[4] = test system: EGFR; assay: Immunoblot of whole cell lysates for EGFR; format: cell-based, human; details: for EGFR expression, dose-dependent: 24 hr
Protocol: (§2) MCF7 cells were obtained and cultured (in the presence of compound III-B for 48 hr) in a similar manner as in Example 6. The cultured MCF7 cells were harvested, washed, and lysed using a lysis buffer (50 mM Tris-HCl (pH 7.4), 150 mM NaCl, 1% NP-40, 5 mM EDTA, 5 mM NaF, 1 mM Na3VO4, 1 mM PMSF, 5 μg/ml leupeptine, and 5 μg/ml aprotinin). […] The antibodies used were polyclonal anti-acetylated lysine (Ac—K; Cell Signaling Technology, Danvers, Mass.) and antibodies directed against EGFR, HER2, ER, and acetylated-α-tubulin (Ac-α-tubulin). […] In contrast, the expression of Ac—K in MCF7 cells was not affected by compound III-B (FIG. 12B).
(§3) MCF7 and T47D cells were obtained and cultured (in the presence of compound III-D (0, 0.5, 1, or 2 μM), for 24 hr), using methods similar to the ones described in Example 6. The whole cell lysates were immunoblotted with antibodies against EGFR, HER2, ER, and α-tubulin using methods similar to the ones described in Example 12. […] In contrast, the expression of α-tubulin in MCF7 or T47D cells was not affected by compound III-D (FIG. 13B).
(§4) MCF7 cells were obtained and cultured (in the presence of 2 μM of compound III-D, for 0, 12, 24, or 48 hr) using methods similar to the ones described in Example 6. The whole cell lysates were immunoblotted with antibodies against EGFR, HER2, ER, and α-tubulin using methods similar to the ones described in Example 12. […] In contrast, the expression of α-tubulin in MCF7 cells was not affected by compound III-D.

[5] = test system: acetylated lysine (Ac—K); assay: Immunoblot for acetylated lysine (histone acetylation); format: cell-based, human; details: MCF7 cells, 48 hr
Protocol: as §2

[6] = test system: ER; assay: Immunoblot of whole cell lysates for ER; format: cell-based, human; details: for ER expression, dose-dependent: 24 hr
Protocol: as §2, §3, §4

[7] = test system: HER2; assay: Immunoblot of whole cell lysates for HER2; format: cell-based, human; details: for HER2 expression, dose-dependent: 24 hr
Protocol: as §2, §3, §4

[8] = test system: pY701 STAT1; assay: Intracellular flow cytometry of STAT1 phosphorylation in MDSCs; format: cell-based, human; details: 1 μM overnight, MM-PBMC, PHA 2 ng/ml 10 min
Protocol: (§5) STAT-mediated signaling plays an important role in MDSC activation and function.
(§6) MM-PBMCs were cultured overnight with (1 μM) or without compound III-D. Cells were induced with phytohemagglutinin (PHA, 2 ng/ml) for 10 min. Intracellular expression of pY701 STAT1, pY705 STAT3, pY694 STAT5, STAT1, STAT3, and STAT5 in MDSCs (CD11b^+CD14^−HLA-DR^−/lowCD33^+CD15^+), was determined by flow cytometry analysis.

[9] = test system: T cells cocultured with MDSCs from peripheral blood of MM patients; assay: MDSC-mediated T cell suppression, 3H-Thymidin incorporation assay; format: cell-based, human; details: 1 μM, 5 days coculture, T:MDSCs 4:1, antiCD3/CD28 Abs and rhIL-2
Protocol: CD11b^+CD14^−HLA-DR^−/lowCD33^+ MDSCs and CD3T cells were isolated from peripheral blood of MM patients. The cells were stimulated with antiCD3/CD28 Abs and 2 ng/ml rhIL-2 and cocultured (ratio of T:MDSCs was 4:1) for 5 days in the absence or presence (1 μM) of compound III-D. The cell proliferation was measured by ^3H-Thymidin incorporation assay.

[10] = test system: pY705 STAT3; assay: Intracellular flow cytometry of STAT3 phosphorylation in MDSCs; format: cell-based, human; details: 1 μM overnight, MM-PBMC, PHA 2 ng/ml 10 min
Protocol: as §5, §6

[11] = test system: MCF7 cells; assay: Bortezomib and III-D combination cytotoxicity in MCF7 cells, MTT, isobologram analysis; format: cell-based, human; details: 48 hr; for Combination indicia (CI): MCF7 cells
Protocol: as §1
MCF7 cells were obtained, cultured (in the presence of bortezomib (0, 10, 20, or 40 nM) and III-D (0, 0.3, 1, or 3 μM), for 48 hr), and assayed using methods similar to the ones described in Example 6. The statistical significance of the differences observed between the control cultures and the cultures treated with bortezomib and compound III-D was determined using the Wilcoxon signed-ranks test. The minimal level of significance was p<0.05. The interaction between compound III-D and bortezomib was analyzed by isobologram analysis using the CalcuSyn software program (Biosoft, Ferguson, Mo.) to determine whether the combination was additive or synergistic. A combination index (CI)<1.0 indicates a synergistic cell growth inhibitory effect.

[12] = test system: CD11b+CD14−HLA-DR−/lowCD33+CD15+ MDSCs in MM-PBMC; assay: MDSC number and maturation in MM-PBMC, flow cytometry; format: cell-based, human; details: 1 μM, cultured overnight; for number of CD11b+CD14−HLA-DR−/lowCD33+CD15+ MDSCs in MM-PBMC: vs untreated MM-PBMC
Protocol: In order to determine whether myeloid derived suppressor cells (MDSCs) are present in subjects with multiple myeloma (MM), fresh or cultured peripheral blood mononuclear cells (PBMCs) and bone marrow mononuclear cells (BMMCs) from human subjects with MM have been analyzed using standard cell-surface multicolor flow cytometry staining methods (see, e.g., Herzenberg et al., Clin. Chem. (2002) 48:1819-27; and Perez et al., Nat. Biotechnol. (2002) 20:155-62).
MM-PBMCs were cultured overnight with (1 μM) or without compound III-D. MDSCs (CD11b^+CD14^−HLA-DR^−/lowCD33^+CD15^+) were determined by flow cytometry analysis. Gates 110 and 130 indicate the MDSC population. Compound III-D induces maturation of MDSCs (CD11b^+CD14^−HLA-DR^−/lowCD33^+CD15^+) into CD14^+ and/or CD14^−[…] (FIG. 3G) in MM peripheral blood compared to untreated MM-PBMC (FIG. 3C). MM-PBMCs were cultured overnight with (1 μM) or without compound III-D. CD14 and/or HLA-DR expressing MDSCs (CD11b^+CD14^−HLA-DR^−/lowCD33^+CD15^+) were determined by flow cytometry analysis. Gates 100 and 120 indicate CD14^+ mature MDSC population. Gating strategy of MDSCs has been indicated as CD11b^+ cells (FIGS. 3A-3B and 3E-3F), CD11b^+CD14^−HLA-DR^−/lowCD14^− cells (FIGS. 3C and 3G) and MDSCs with a phenotype of CD11b^+/HLA-DR^−/lowCD14^−/CD33^+CD15^+ cells (FIGS. 3D and 3H).

[13] = test system: α-tubulin; assay: Immunoblot of whole cell lysates for α-tubulin; format: cell-based, human
Protocol: as §2, §3, §4

[14] = test system: pY694 STAT5; assay: Intracellular flow cytometry of STAT5 phosphorylation in MDSCs; format: cell-based, human; details: 1 μM overnight, MM-PBMC, PHA 2 ng/ml 10 min
Protocol: as §5, §6

[15] = MCF7 cells, 2 μM, 0, 12, 24, or 48 hr

O=C(N/N=C/c1ccc(N(c2ccccc2)c2ccccc2)cc1)c1ccccc1 [Compound III-C]
T47D cell growth [1]: inhibit | LnCaP cell growth [2]: inhibit | MCF7 cell growth [3]: inhibit

O/N=C/c1ccc(N(c2ccccc2)c2ccccc2)cc1 [Compound III-E]
T47D cell growth [1]: inhibit | LnCaP cell growth [2]: inhibit | MCF7 cell growth [3]: inhibit

CC(=O)NN=Cc1ccc(N(C)C)cc1 [Compound IV-D]
MCF7 cell growth [3]: does not

O=C(NN=Cc1ccccc1)c1ccccc1 [Compound IV-B]
MCF7 cell growth [3]: do not

CC(=O)N/N=C/c1ccc(N(c2ccccc2)c2ccccc2)cc1 [Compound III-B]
EGFR expression ([4]; MCF7 cells, 48 hr): down-regulates | expression of Ac—K [5]: not affected | ER expression ([6]; MCF7 cells, 48 hr): down-regulates | T47D cell growth [1]: inhibit | LnCaP cell growth [2]: inhibit | HER2 expression ([7]; MCF7 cells, 48 hr): down-regulates | MCF7 cell growth [3]: inhibit

CC(=O)NN=Cc1ccccc1 [Compound IV-C]
MCF7 cell growth [3]: do not

CN1CCC(C(=O)N/N=C/c2ccc(N(c3ccccc3)c3ccccc3)cc2)CC1 [Compound III-D]
phosphorylation of STAT1 (pY701) in MDSCs [8]: significantly reduced | MDSC-mediated T cell suppression (T cell proliferation) [9]: Reversed | EGFR expression, dose-dependent ([4]; MCF7 cells, 0, 0.5, 1, or 2 μM): down-regulates | EGFR expression, time-dependent [4, 15]: down-regulates | EGFR expression, dose-dependent ([4]; T47D cells, 0, 0.5, 1, or 2 μM): down-regulates | ER expression, dose-dependent ([6]; MCF7 cells, 0, 0.5, 1, or 2 μM): down-regulates | ER expression, time-dependent [6, 15]: down-regulates | ER expression, dose-dependent ([6]; T47D cells, 0, 0.5, 1, or 2 μM): down-regulates | phosphorylation of STAT3 (pY705) in MDSCs [10]: significantly reduced | Combination indicia (CI) ([11]; III-D 0.3 μM + bortezomib 10 nM): 1.58 | Combination indicia (CI) ([11]; III-D 0.3 μM + bortezomib 20 nM): 1.29 | Combination indicia (CI) ([11]; III-D 0.3 μM + bortezomib 40 nM): 0.83 | Combination indicia (CI) ([11]; III-D 1 μM + bortezomib 10 nM): 0.66 | Combination indicia (CI) ([11]; III-D 1 μM + bortezomib 20 nM): 0.53 | Combination indicia (CI) ([11]; III-D 1 μM + bortezomib 40 nM): 0.53 | Combination indicia (CI) ([11]; III-D 3 μM + bortezomib 10 nM): 1.22 | Combination indicia (CI) ([11]; III-D 3 μM + bortezomib 20 nM): 1.03 | Combination indicia (CI) ([11]; III-D 3 μM + bortezomib 40 nM): 0.98 | enhancement of bortezomib-induced MCF7 cytotoxicity (interaction) ([11]; combination with bortezomib, at least at certain concentrations, CI<1 = synergistic): synergistically | potency in inhibiting T47D cells compared with tamoxifen [1]: more potent than tamoxifen | maturation of MDSCs into CD14+ monocytes and/or CD14+HLA-DR+ antigen presenting cells ([12]; MM-PBMC): induced maturation | number of CD11b+CD14−HLA-DR−/lowCD33+CD15+ MDSCs in MM-PBMC [12]: significant decrease | expression of α-tubulin ([13]; MCF7 cells, 0, 0.5, 1, or 2 μM, 24 hr): not affected | expression of α-tubulin [13, 15]: not affected | expression of α-tubulin ([13]; T47D cells, 0, 0.5, 1, or 2 μM, 24 hr): not affected | HER2 expression, dose-dependent ([7]; MCF7 cells, 0, 0.5, 1, or 2 μM): down-regulates | HER2 expression, time-dependent [7, 15]: down-regulates | HER2 expression, dose-dependent ([7]; T47D cells, 0, 0.5, 1, or 2 μM): down-regulates | phosphorylation of STAT5 (pY694) in MDSCs [14]: significantly reduced | MCF7 cell growth [3]: inhibit | potency in inhibiting MCF7 cells compared with tamoxifen ([3]; at least at 3-10 μM of compound and tamoxifen): more potent than tamoxifen

CC(C)C[C@H](NC(=O)[C@H](Cc1ccccc1)NC(=O)c1cnccn1)B(O)O [bortezomib, reference compound]
response of MCF7 cells to bortezomib as single agent ([11]; bortezomib 0, 10, 20, or 40 nM): resistant

O=Cc1ccc(N(c2ccccc2)c2ccccc2)cc1 [III-A]
T47D cell growth [1]: inhibit | LnCaP cell growth [2]: inhibit | MCF7 cell growth [3]: inhibit

O=C1CN(/N=C/c2ccc(N(c3ccccc3)c3ccccc3)cc2)C(=O)N1 [Compound III-F]
phosphorylation of STAT1 (pY701) in MDSCs [8]: decreases | MDSC-mediated T cell suppression (T cell proliferation) [9]: reverses | phosphorylation of STAT3 (pY705) in MDSCs [10]: decreases | number of CD11b+CD14−HLA-DR−/lowCD33+CD15+ MDSCs in MM-PBMC [12]: decreased | phosphorylation of STAT5 (pY694) in MDSCs [14]: decreases | MCF7 cell growth [3]: inhibit
